Experimental data published in paper PMC11167047 (Cell Death Discovery, 2024).

Key:
Test in all cases: kinome screen (33PanQinase)
Type in all cases: biochemical
CDK5/p35NCK = molecular target: T1, CDK5/p35NCK (Homo sapiens, UniProt Q00535)
T1 construct: purchased Reaction Biology Europe GmbH (formerly ProQinase)
Experimental: (§1) The Kinome Screening was performed by Reaction Biology Europe GmbH (http://reactionbiology.com; Freiburg i. Br., Germany).

DAPK1 = molecular target: T2, DAPK1 (Homo sapiens, UniProt P53355)
T2 construct: purchased Reaction Biology Europe GmbH (formerly ProQinase)
Experimental: as §1

EIF2AK2 = molecular target: T3, EIF2AK2 (Homo sapiens, UniProt P19525)
T3 construct: purchased Reaction Biology Europe GmbH (formerly ProQinase)
Experimental: as §1

EPHA7 = molecular target: T4, EPHA7 (Homo sapiens, UniProt Q15375)
T4 construct: purchased Reaction Biology Europe GmbH (formerly ProQinase)
Experimental: as §1

EPHA8 = molecular target: T5, EPHA8 (Homo sapiens, UniProt P29322)
T5 construct: purchased Reaction Biology Europe GmbH (formerly ProQinase)
T5 sequence (P29322 28-1005): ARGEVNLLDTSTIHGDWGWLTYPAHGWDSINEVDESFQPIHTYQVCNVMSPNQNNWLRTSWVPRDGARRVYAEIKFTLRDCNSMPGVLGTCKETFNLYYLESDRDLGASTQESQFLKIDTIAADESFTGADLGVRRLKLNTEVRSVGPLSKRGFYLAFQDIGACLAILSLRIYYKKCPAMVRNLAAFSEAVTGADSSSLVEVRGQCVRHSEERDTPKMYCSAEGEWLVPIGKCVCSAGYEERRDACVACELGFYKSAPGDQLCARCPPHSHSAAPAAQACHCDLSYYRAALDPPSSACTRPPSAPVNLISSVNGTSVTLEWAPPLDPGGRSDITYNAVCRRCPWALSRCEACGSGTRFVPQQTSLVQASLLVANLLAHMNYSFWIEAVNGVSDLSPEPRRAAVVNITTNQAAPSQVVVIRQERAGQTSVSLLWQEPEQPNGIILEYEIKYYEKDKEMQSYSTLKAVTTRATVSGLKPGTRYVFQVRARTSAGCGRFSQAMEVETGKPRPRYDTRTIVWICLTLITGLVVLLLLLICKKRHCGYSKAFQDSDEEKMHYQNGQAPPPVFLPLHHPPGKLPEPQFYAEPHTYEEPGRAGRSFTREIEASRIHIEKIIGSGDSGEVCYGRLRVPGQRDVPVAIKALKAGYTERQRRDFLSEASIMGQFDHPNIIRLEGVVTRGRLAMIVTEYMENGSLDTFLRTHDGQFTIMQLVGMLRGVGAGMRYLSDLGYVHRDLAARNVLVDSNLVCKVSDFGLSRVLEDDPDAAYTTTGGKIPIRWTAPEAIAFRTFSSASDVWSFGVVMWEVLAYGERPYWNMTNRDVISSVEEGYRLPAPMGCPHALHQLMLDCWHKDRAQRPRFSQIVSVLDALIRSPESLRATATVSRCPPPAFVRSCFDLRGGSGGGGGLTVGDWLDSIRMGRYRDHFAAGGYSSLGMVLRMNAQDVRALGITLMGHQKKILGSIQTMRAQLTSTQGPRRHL
Experimental: as §1

HIPK1 = molecular target: T6, HIPK1 (Homo sapiens, UniProt Q86Z02)
T6 construct: purchased Reaction Biology Europe GmbH (formerly ProQinase)
Experimental: as §1

HIPK3 = molecular target: T7, HIPK3 (Homo sapiens, UniProt Q9H422)
T7 construct: purchased Reaction Biology Europe GmbH (formerly ProQinase)
Experimental: as §1

IGF1R = molecular target: T8, IGF1R (Homo sapiens, UniProt P08069)
T8 construct: purchased Reaction Biology Europe GmbH (formerly ProQinase)
Experimental: as §1

MAP4K4 = molecular target: T9, MAP4K4 (Homo sapiens, UniProt O95819)
T9 construct: purchased Reaction Biology Europe GmbH (formerly ProQinase)
Experimental: as §1

MST3 = molecular target: T10, MST3 (Homo sapiens, UniProt Q9Y6E0)
T10 construct: purchased Reaction Biology Europe GmbH (formerly ProQinase)
Experimental: as §1

NEK2 = molecular target: T11, NEK2 (Homo sapiens, UniProt P51955)
T11 construct: purchased Reaction Biology Europe GmbH (formerly ProQinase)
T11 sequence (P51955 1-445): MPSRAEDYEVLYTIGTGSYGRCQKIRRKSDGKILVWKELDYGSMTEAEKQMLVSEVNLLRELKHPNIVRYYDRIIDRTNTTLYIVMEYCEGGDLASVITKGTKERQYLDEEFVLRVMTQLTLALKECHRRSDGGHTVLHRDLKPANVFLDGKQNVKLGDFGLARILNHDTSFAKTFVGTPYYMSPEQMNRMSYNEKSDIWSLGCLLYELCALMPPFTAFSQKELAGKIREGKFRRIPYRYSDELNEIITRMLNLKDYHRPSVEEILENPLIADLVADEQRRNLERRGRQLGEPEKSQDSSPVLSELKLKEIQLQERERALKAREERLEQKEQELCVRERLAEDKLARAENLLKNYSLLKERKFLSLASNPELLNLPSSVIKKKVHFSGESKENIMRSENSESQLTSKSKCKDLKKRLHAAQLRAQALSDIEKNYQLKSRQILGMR
Experimental: as §1

NEK7 = molecular target: T12, NEK7 (Homo sapiens, UniProt Q8TDX7)
T12 construct: purchased Reaction Biology Europe GmbH (formerly ProQinase)
Experimental: as §1

PAK3 = molecular target: T13, PAK3 (Homo sapiens, UniProt O75914)
T13 construct: purchased Reaction Biology Europe GmbH (formerly ProQinase)
Experimental: as §1

PLK3 = molecular target: T14, PLK3 (Homo sapiens, UniProt Q9H4B4)
T14 construct: purchased Reaction Biology Europe GmbH (formerly ProQinase)
Experimental: as §1

ZAK = molecular target: T15, ZAK (Homo sapiens, UniProt Q9NYL2)
T15 construct: purchased Reaction Biology Europe GmbH (formerly ProQinase)
Experimental: as §1

p38β = molecular target: T16, p38β (Homo sapiens, UniProt Q15759)
T16 construct: purchased Reaction Biology Europe GmbH (formerly ProQinase)
Experimental: as §1

T1 sequence (Q00535 whole entry): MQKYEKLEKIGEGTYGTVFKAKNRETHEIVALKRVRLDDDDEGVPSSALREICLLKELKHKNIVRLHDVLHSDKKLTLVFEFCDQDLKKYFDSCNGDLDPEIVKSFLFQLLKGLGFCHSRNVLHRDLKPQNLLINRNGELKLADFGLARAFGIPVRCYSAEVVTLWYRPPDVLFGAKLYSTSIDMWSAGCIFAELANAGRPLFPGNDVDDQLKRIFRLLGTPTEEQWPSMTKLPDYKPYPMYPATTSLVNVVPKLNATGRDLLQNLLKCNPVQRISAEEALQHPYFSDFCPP
T1 sequence (Q15078 whole entry partner): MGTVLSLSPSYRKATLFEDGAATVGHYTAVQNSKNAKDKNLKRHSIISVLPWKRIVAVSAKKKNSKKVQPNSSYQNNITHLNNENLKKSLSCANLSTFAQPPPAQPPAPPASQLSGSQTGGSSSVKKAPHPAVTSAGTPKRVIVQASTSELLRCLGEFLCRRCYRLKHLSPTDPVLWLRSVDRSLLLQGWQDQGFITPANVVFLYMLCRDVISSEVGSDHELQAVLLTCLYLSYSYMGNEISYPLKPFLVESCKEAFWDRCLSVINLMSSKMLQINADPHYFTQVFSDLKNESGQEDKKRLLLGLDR
T3 sequence (P19525 whole entry): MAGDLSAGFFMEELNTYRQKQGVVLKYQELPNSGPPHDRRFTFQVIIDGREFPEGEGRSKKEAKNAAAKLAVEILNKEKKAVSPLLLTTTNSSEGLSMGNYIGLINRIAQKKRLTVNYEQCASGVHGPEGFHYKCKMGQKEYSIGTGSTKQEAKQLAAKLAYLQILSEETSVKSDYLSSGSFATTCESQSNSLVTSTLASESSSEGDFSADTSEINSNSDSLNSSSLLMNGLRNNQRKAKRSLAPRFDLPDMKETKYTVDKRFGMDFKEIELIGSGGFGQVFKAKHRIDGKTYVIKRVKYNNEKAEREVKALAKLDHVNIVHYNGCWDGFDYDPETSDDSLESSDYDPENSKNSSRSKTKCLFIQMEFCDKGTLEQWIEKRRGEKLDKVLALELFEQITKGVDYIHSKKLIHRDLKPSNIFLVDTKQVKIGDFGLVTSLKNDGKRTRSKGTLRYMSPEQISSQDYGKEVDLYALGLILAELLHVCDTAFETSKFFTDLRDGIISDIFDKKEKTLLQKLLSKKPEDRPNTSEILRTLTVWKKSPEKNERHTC
T8 sequence (P08069 31-1367): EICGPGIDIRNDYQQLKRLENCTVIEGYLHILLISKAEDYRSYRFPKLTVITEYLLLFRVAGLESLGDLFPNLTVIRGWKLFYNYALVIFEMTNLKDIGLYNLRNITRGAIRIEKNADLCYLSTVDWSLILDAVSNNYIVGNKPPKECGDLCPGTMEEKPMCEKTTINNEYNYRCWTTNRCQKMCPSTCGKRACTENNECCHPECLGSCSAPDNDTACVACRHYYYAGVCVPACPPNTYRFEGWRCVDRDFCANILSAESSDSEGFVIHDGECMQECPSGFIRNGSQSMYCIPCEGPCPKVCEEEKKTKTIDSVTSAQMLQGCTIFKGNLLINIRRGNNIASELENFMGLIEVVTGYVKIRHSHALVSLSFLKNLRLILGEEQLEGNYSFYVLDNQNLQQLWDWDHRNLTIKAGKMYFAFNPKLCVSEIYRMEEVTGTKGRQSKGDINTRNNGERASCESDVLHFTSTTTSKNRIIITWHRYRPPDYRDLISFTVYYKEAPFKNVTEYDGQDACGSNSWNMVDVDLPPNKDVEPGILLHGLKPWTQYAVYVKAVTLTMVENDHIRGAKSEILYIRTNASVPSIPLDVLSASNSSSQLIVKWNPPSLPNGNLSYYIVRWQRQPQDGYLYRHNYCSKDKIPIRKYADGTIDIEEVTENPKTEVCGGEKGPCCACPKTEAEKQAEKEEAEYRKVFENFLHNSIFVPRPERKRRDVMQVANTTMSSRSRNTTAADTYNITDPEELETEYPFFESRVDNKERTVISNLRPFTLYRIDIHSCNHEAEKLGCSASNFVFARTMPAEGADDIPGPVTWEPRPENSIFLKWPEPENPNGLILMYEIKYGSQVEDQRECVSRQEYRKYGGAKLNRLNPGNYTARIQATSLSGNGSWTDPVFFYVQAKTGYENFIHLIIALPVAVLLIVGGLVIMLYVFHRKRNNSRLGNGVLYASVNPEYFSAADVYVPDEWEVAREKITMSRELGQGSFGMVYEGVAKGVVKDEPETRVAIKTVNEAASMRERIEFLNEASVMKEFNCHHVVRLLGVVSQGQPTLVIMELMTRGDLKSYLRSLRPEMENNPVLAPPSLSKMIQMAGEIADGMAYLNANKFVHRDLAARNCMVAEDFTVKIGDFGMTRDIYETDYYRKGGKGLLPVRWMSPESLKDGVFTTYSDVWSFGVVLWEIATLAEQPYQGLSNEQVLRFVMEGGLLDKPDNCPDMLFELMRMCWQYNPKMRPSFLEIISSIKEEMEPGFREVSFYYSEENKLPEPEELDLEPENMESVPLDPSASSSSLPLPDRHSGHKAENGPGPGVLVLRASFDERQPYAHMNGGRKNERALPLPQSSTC
T9 sequence (O95819 whole entry): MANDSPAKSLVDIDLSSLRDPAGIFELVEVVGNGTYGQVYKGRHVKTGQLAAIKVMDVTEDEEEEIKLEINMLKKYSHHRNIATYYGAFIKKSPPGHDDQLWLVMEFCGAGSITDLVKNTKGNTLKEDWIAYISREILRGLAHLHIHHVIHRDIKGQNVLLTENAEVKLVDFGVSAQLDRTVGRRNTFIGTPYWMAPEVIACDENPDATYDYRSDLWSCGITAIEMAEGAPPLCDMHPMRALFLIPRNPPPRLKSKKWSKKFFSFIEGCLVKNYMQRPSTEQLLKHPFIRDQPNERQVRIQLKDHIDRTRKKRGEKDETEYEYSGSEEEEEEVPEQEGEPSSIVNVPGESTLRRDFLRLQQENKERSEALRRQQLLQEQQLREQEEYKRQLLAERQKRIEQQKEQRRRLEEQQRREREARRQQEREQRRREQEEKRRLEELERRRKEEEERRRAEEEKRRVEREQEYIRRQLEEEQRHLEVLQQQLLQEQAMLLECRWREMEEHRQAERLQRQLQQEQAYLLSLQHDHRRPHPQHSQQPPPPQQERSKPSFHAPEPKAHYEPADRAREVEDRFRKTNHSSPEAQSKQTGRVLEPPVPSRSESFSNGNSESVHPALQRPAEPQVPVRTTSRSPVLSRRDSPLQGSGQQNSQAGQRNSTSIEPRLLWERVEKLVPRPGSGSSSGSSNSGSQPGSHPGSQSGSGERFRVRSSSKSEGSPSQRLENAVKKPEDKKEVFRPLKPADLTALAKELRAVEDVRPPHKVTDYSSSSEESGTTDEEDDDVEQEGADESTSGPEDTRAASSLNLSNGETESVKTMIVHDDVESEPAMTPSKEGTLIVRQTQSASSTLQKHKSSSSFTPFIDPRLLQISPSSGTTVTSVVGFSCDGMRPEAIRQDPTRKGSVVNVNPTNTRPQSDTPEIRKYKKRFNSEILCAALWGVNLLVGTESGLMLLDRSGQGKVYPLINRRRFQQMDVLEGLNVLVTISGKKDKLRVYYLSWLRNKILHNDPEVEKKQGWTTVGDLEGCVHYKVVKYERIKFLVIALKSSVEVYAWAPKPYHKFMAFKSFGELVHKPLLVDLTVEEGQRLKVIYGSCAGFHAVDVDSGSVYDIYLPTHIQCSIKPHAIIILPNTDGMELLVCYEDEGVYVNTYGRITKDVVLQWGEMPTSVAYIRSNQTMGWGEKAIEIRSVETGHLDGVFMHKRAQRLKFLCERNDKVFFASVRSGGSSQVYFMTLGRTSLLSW
T14 sequence (Q9H4B4 whole entry): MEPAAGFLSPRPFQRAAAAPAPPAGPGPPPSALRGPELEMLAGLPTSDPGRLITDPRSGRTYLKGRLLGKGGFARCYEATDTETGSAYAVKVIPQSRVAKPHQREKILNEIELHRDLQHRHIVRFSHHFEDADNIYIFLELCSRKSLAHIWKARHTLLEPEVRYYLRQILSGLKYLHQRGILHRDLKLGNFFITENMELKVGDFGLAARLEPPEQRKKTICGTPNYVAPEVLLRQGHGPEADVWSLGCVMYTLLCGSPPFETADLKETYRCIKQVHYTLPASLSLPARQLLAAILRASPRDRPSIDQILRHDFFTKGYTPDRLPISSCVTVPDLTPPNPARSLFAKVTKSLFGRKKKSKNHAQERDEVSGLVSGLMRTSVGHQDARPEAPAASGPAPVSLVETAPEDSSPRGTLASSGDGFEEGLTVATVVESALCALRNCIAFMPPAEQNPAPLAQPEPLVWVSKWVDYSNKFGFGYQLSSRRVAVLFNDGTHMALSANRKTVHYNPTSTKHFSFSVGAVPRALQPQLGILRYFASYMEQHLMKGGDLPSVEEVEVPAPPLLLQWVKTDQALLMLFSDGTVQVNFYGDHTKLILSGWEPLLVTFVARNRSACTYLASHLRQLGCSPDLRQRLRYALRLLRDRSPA
T10 sequence (Q9Y6E0 whole entry): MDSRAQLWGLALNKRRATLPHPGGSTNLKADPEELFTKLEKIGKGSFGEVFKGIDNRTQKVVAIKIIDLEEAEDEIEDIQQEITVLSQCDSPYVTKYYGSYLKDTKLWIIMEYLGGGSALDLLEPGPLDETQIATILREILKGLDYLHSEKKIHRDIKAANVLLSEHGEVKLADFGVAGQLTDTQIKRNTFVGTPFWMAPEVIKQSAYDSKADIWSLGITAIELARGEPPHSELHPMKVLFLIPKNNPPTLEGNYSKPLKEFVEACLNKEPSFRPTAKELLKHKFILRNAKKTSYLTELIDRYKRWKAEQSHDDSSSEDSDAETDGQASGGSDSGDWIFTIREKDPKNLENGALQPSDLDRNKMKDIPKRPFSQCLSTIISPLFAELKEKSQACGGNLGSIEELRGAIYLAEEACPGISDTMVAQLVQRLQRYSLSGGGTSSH

| SMILES | residual kinase activity (CDK5/p35NCK; 0.3 µM) | residual kinase activity (DAPK1; 0.3 µM) | residual kinase activity (EIF2AK2; 0.3 µM) | residual kinase activity (EPHA7; 0.3 µM) | residual kinase activity (EPHA8; 0.3 µM) | residual kinase activity (HIPK1; 0.3 µM) | residual kinase activity (HIPK3; 0.3 µM) | residual kinase activity (IGF1R; 0.3 µM) | residual kinase activity (MAP4K4; 0.3 µM) | residual kinase activity (MST3; 0.3 µM) | residual kinase activity (NEK2; 0.3 µM) | residual kinase activity (NEK7; 0.3 µM) | residual kinase activity (PAK3; 0.3 µM) | residual kinase activity (PLK3; 0.3 µM) | residual kinase activity (ZAK; 0.3 µM) | residual kinase activity (p38β; 0.3 µM) | other results |
| --- | --- | --- | --- | --- | --- | --- | --- | --- | --- | --- | --- | --- | --- | --- | --- | --- | --- |
| c1ccc(CNc2cc(-c3c[nH]c4ncccc34)ccn2)cc1 [meriolin 36] | 0 % of control | 119 % of control | 79 % of control | 131 % of control | 113 % of control | 47 % of control | 45 % of control | 128 % of control | 6 % of control | 71 % of control | 95 % of control | 103 % of control | 85 % of control | 97 % of control | 57 % of control | 77 % of control | residual kinase activity (CDK5/p35NCK; 3 µM): 0 % of control; residual kinase activity (DAPK1; 3 µM): 64 % of control; residual kinase activity (EIF2AK2; 3 µM): 63 % of control; residual kinase activity (EPHA7; 3 µM): 93 % of control; residual kinase activity (EPHA8; 3 µM): 94 % of control; residual kinase activity (HIPK1; 3 µM): 10 % of control; residual kinase activity (HIPK3; 3 µM): 11 % of control; residual kinase activity (IGF1R; 3 µM): 83 % of control; residual kinase activity (MAP4K4; 3 µM): 2 % of control; residual kinase activity (MST3; 3 µM): 32 % of control; residual kinase activity (NEK2; 3 µM): 72 % of control; residual kinase activity (NEK7; 3 µM): 107 % of control; residual kinase activity (PAK3; 3 µM): 40 % of control; residual kinase activity (PLK3; 3 µM): 87 % of control; residual kinase activity (ZAK; 3 µM): 14 % of control; residual kinase activity (p38β; 3 µM): 84 % of control |
| COc1ccnc2[nH]cc(-c3cc(N)nc(N)c3)c12 [meriolin 16] | 1 % of control | 72 % of control | 95 % of control | 107 % of control | 107 % of control | 10 % of control | 7 % of control | 99 % of control | 29 % of control | 91 % of control | 96 % of control | 96 % of control | 84 % of control | 92 % of control | 83 % of control | 88 % of control | residual kinase activity (CDK5/p35NCK; 0.03 µM): 7 % of control; residual kinase activity (DAPK1; 0.03 µM): 112 % of control; residual kinase activity (EIF2AK2; 0.03 µM): 83 % of control; residual kinase activity (EPHA7; 0.03 µM): 122 % of control; residual kinase activity (EPHA8; 0.03 µM): 119 % of control; residual kinase activity (HIPK1; 0.03 µM): 49 % of control; residual kinase activity (HIPK3; 0.03 µM): 53 % of control; residual kinase activity (IGF1R; 0.03 µM): 116 % of control; residual kinase activity (MAP4K4; 0.03 µM): 76 % of control; residual kinase activity (MST3; 0.03 µM): 101 % of control; residual kinase activity (NEK2; 0.03 µM): 103 % of control; residual kinase activity (NEK7; 0.03 µM): 111 % of control; residual kinase activity (PAK3; 0.03 µM): 85 % of control; residual kinase activity (PLK3; 0.03 µM): 95 % of control; residual kinase activity (ZAK; 0.03 µM): 96 % of control; residual kinase activity (p38β; 0.03 µM): 79 % of control |
